{"source": "EPA's ToxRefDB 2", "key": {"[1]": {"test_system": "rat", "conditions": "Sub-acute repeat dose toxicity, sprague dawley, Oral, Gavage/Intubation, dose end: 28 day, group: systemic"}, "[2]": {"test_system": "primate", "conditions": "Sub-acute repeat dose toxicity; Oral; Gavage/Intubation; dose end: 19 day; group: systemic; systemic / clinical chemistry / creatinine / creatinine + systemic / clinical chemistry / urea nitrogen / urea nitrogen + systemic / …"}, "[3]": {"test_system": "primate", "conditions": "Sub-acute repeat dose toxicity; Oral; Gavage/Intubation; dose end: 21 day; group: systemic; systemic / in life observation / clinical signs / inappetence + systemic / in life observation / clinical signs / abnormal feces + systemic…"}, "[4]": {"test_system": "rat", "conditions": "Sub-acute repeat dose toxicity, sprague dawley, Oral, Gavage/Intubation, dose end: 14 day, group: systemic"}, "[5]": {"test_system": "primate", "conditions": "Sub-acute repeat dose toxicity; Oral; Gavage/Intubation; dose end: 30 day; group: systemic; systemic / clinical chemistry / protein / protein + systemic / hematology / erythrocyte (rbc) count differential / erythrocyte (rbc) + …"}, "[6]": {"test_system": "rat", "conditions": "Sub-acute repeat dose toxicity; sprague dawley; Injection; Intravenous; dose end: 5 day; group: systemic; systemic / in life observation / clinical signs / drooping eyelids (ptosis) + systemic / in life observation / clinical signs / reduced …"}, "[7]": {"test_system": "primate", "conditions": "Sub-acute repeat dose toxicity; Injection; Intravenous; dose end: 5 day; group: systemic; systemic / in life observation / clinical signs / [other] + systemic / in life observation / clinical signs / compulsive biting or licking…"}, "[8]": {"test_system": "dog", "conditions": "Sub-acute repeat dose toxicity, beagle, Injection, Intravenous, dose end: 5 day, group: systemic"}, "[9]": {"test_system": "rat", "conditions": "Sub-acute repeat dose toxicity; sprague dawley; Injection; Intravenous; dose end: 4 day; group: systemic; systemic / in life observation / clinical signs / drooping eyelids (ptosis) + systemic / in life observation / clinical signs / external …"}, "[10]": {"test_system": "rat", "conditions": "Carcinogenicity; fischer; Oral; Feed; dose end: 2 year; group: systemic; systemic / in life observation / body weight / body weight"}, "[11]": {"test_system": "rat", "conditions": "Prenatal developmental toxicity study; sprague dawley; Oral; Gavage/Intubation; dose end: 7 GD; group: maternal; reproductive / reproductive performance / estrous cycle / corpora lutea + reproductive / reproductive performance / postimplantation loss / …"}, "[12]": {"test_system": "rat", "conditions": "Sub-acute repeat dose toxicity, sprague dawley, Oral, Gavage/Intubation, dose end: 28 day, group: systemic", "remark": "listed apart in the source"}, "[13]": {"test_system": "rat", "conditions": "Developmental neurotoxicity study; sprague dawley; Injection; Subcutaneous; dose end: 345 PND; group: cannot be grouped; systemic / in life observation / body weight / offspring (pup) weight + systemic / in life observation / clinical signs / abnormal movements…"}, "[14]": {"conditions": "systemic / pathology gross / full gross necropsy / ulcer"}, "[15]": {"conditions": "systemic / pathology gross / full gross necropsy / ulcer + systemic / clinical chemistry / protein / protein + systemic / hematology / …"}, "[16]": {"conditions": "systemic / clinical chemistry / calcium / calcium + systemic / clinical chemistry / protein / protein + systemic / hematology / erythrocyte…"}, "[17]": {"conditions": "systemic / hematology / erythrocyte (rbc) count differential / erythrocyte (rbc) + systemic / hematology / hematocrit (hct) / hematocrit (…"}, "[18]": {"conditions": "systemic / clinical chemistry / bile acids / bile acids"}, "[19]": {"conditions": "systemic / clinical chemistry / bile acids / bile acids + systemic / pathology microscopic / gallbladder / hyperplasia + systemic / …"}, "[20]": {"conditions": "systemic / organ weight / heart / nos + systemic / organ weight / thymus / nos + systemic / pathology microscopic / ovary / follicle count"}}, "data": [{"smiles": "NC(=O)n1c(O)c(C(=O)c2cc(Cl)cs2)c2cc(Cl)ccc21", "values": [{"measurement": "LEL", "setting": "[1]; [14]", "value": 2, "unit": "mg/kg/day"}, {"measurement": "NEL", "setting": "[1]; [14]", "value": "< 2", "unit": "mg/kg/day"}, {"measurement": "LOAEL", "setting": "[1]; [15]", "value": "> 8", "unit": "mg/kg/day"}, {"measurement": "NOAEL", "setting": "[1]; [15]", "value": "≥ 8", "unit": "mg/kg/day"}, {"measurement": "LEL", "setting": "[2]", "value": 8, "unit": "mg/kg/day"}, {"measurement": "LOAEL", "setting": "[2]", "value": "> 8", "unit": "mg/kg/day"}, {"measurement": "NEL", "setting": "[2]", "value": "< 8", "unit": "mg/kg/day"}, {"measurement": "NOAEL", "setting": "[2]", "value": "≥ 8", "unit": "mg/kg/day"}, {"measurement": "LEL", "setting": "[3]", "value": 3, "unit": "mg/kg/day"}, {"measurement": "LOAEL", "setting": "[3]", "value": "> 3", "unit": "mg/kg/day"}, {"measurement": "NEL", "setting": "[3]", "value": "< 3", "unit": "mg/kg/day"}, {"measurement": "NOAEL", "setting": "[3]", "value": "≥ 3", "unit": "mg/kg/day"}, {"measurement": "LOAEL", "setting": "[4]; [16]", "value": "> 100", "unit": "mg/kg/day"}, {"measurement": "NOAEL", "setting": "[4]; [16]", "value": "≥ 100", "unit": "mg/kg/day"}, {"measurement": "LEL", "setting": "[4]; [17]", "value": 3, "unit": "mg/kg/day"}, {"measurement": "NEL", "setting": "[4]; [17]", "value": "< 3", "unit": "mg/kg/day"}, {"measurement": "LEL", "setting": "[5]", "value": 2, "unit": "mg/kg/day"}, {"measurement": "LOAEL", "setting": "[5]", "value": "> 6", "unit": "mg/kg/day"}, {"measurement": "NEL", "setting": "[5]", "value": "< 2", "unit": "mg/kg/day"}, {"measurement": "NOAEL", "setting": "[5]", "value": "≥ 6", "unit": "mg/kg/day"}]}, {"smiles": "CNC(=O)[C@H]1O[C@@H](n2cnc3c(NCc4cc(Cl)ccc4OCc4cc(C)no4)ncnc32)[C@H](O)[C@@H]1N", "values": [{"measurement": "LEL", "setting": "[6]", "value": 5, "unit": "mg/kg/day"}, {"measurement": "LOAEL", "setting": "[6]", "value": "> 150", "unit": "mg/kg/day"}, {"measurement": "NEL", "setting": "[6]", "value": "< 5", "unit": "mg/kg/day"}, {"measurement": "NOAEL", "setting": "[6]", "value": "≥ 150", "unit": "mg/kg/day"}, {"measurement": "LEL", "setting": "[7]", "value": 40, "unit": "mg/kg/day"}, {"measurement": "LOAEL", "setting": "[7]", "value": "> 40", "unit": "mg/kg/day"}, {"measurement": "NEL", "setting": "[7]", "value": 15, "unit": "mg/kg/day"}, {"measurement": "NOAEL", "setting": "[7]", "value": "≥ 40", "unit": "mg/kg/day"}, {"measurement": "LEL", "setting": "[8]; [18]", "value": 3, "unit": "mg/kg/day"}, {"measurement": "NEL", "setting": "[8]; [18]", "value": "< 3", "unit": "mg/kg/day"}, {"measurement": "LOAEL", "setting": "[8]; [19]", "value": "> 30", "unit": "mg/kg/day"}, {"measurement": "NOAEL", "setting": "[8]; [19]", "value": "≥ 30", "unit": "mg/kg/day"}, {"measurement": "LEL", "setting": "[9]", "value": 5, "unit": "mg/kg/day"}, {"measurement": "LOAEL", "setting": "[9]", "value": "> 5", "unit": "mg/kg/day"}, {"measurement": "NEL", "setting": "[9]", "value": "< 5", "unit": "mg/kg/day"}, {"measurement": "NOAEL", "setting": "[9]", "value": "≥ 5", "unit": "mg/kg/day"}]}, {"smiles": "Cc1ccc2ncccc2c1", "note": "[6-Methylquinoline]", "values": [{"measurement": "LEL", "setting": "[10]", "value": 25, "unit": "mg/kg/day"}, {"measurement": "LOAEL", "setting": "[10]", "value": "> 25", "unit": "mg/kg/day"}, {"measurement": "NEL", "setting": "[10]", "value": "< 25", "unit": "mg/kg/day"}, {"measurement": "NOAEL", "setting": "[10]", "value": "≥ 25", "unit": "mg/kg/day"}]}, {"smiles": "CS(=O)(=O)OCCCCOS(C)(=O)=O", "note": "[Busulfan]", "values": [{"measurement": "LEL", "setting": "[11]", "value": 1.5, "unit": "mg/kg/day"}, {"measurement": "LOAEL", "setting": "[11]", "value": "> 1.5", "unit": "mg/kg/day"}, {"measurement": "NEL", "setting": "[11]", "value": 0.5, "unit": "mg/kg/day"}, {"measurement": "NOAEL", "setting": "[11]", "value": "≥ 1.5", "unit": "mg/kg/day"}, {"measurement": "LOAEL", "setting": "[12]; [20]", "value": "> 1.5", "unit": "mg/kg/day"}, {"measurement": "NEL", "setting": "[12]; [20]", "value": 0.1, "unit": "mg/kg/day"}, {"measurement": "NOAEL", "setting": "[12]; [20]", "value": "≥ 1.5", "unit": "mg/kg/day"}, {"measurement": "LEL", "setting": "[12]; systemic / pathology microscopic / ovary / follicle count", "value": 0.5, "unit": "mg/kg/day"}]}, {"smiles": "C[C@@H]1C[C@H]2[C@@H]3CCC4=CC(=O)C=C[C@]4(C)[C@@]3(F)[C@@H](O)C[C@]2(C)[C@@]1(O)C(=O)CO", "note": "[Dexamethasone]", "values": [{"measurement": "LEL", "setting": "[13]", "value": 3, "unit": "mg/kg/day"}, {"measurement": "LOAEL", "setting": "[13]", "value": "> 3", "unit": "mg/kg/day"}, {"measurement": "NEL", "setting": "[13]", "value": "< 3", "unit": "mg/kg/day"}, {"measurement": "NOAEL", "setting": "[13]", "value": "≥ 3", "unit": "mg/kg/day"}]}]}
